From ChEMBL document CHEMBL5584340, “Discovery of Novel Antiosteoporosis Leads with Bone Resorption Inhibition and Anabolic Promotion through a Chemotype-Assembly Approach” (J Med Chem, 2024)
pIC50: −log10 of the molar value. The source made the active and inactive calls. The rule behind the calls is not given here.

Key:
BMDM [1] = experiment: Anti-osteoclastogenic activity in M-CSF/RANKL-induced C57BL/6 mouse BMDM cells assessed as inhibition of M-CSF/RANKL-stimulated osteoclast differentiation measured after 5 days by TRAP staining based microscopic analysis; assay type: functional, cell-based; details: C57BL/6, BMDM, 120 h
[2] = Cytotoxicity against mouse RAW264.7 cells incubated for 48 hrs by CCK-8 assay; assay type: toxicity, cell-based
BMDM [3] = experiment: Anti-osteoclastogenic activity in M-CSF/RANKL-induced C57BL/6 mouse BMDM cells assessed as downregulation of ATP6VOD2 mRNA expression at 1 uM incubated for 7 days by RT-qPCR analysis; assay type: functional, cell-based; details: time 7.0 day
BMDM [4] = experiment: Anti-osteoclastogenic activity in M-CSF/RANKL-induced C57BL/6 mouse BMDM cells assessed as downregulation of C-Fos mRNA expression at 1 uM incubated for 7 days by RT-qPCR analysis; assay type: functional, cell-based; details: time 7.0 day
BMDM [5] = experiment: Anti-osteoclastogenic activity in M-CSF/RANKL-induced C57BL/6 mouse BMDM cells assessed as downregulation of CTSK mRNA expression at 1 uM incubated for 7 days by RT-qPCR analysis; assay type: functional, cell-based; details: time 7.0 day
BMDM [6] = experiment: Anti-osteoclastogenic activity in M-CSF/RANKL-induced C57BL/6 mouse BMDM cells assessed as downregulation of TRACP mRNA expression at 1 uM incubated for 7 days by RT-qPCR analysis; assay type: functional, cell-based; details: time 7.0 day
C3H 10T1/2 [7] = experiment: Induction of osteoblast differentiation in mouse C3H 10T1/2 cells at 1 uM incubated for 7 days by ALP staining based analysis; assay type: functional, cell-based; details: time 7.0 day
C3H 10T1/2 [8] = experiment: Induction of osteoblast mineralization in mouse C3H 10T1/2 cells assessed as increase in calcium deposition at 1 uM measured after 14 days by Alizarin Red S staining based analysis; assay type: functional, cell-based; details: time 14.0 day
C3H 10T1/2 [9] = experiment: Induction of osteoblastogenesis in mouse C3H 10T1/2 cells assessed as upregulation of ALP gene expression at 1 uM incubated for 7 days by RT-qPCR analysis; assay type: functional, cell-based; details: time 7.0 day
C3H 10T1/2 [10] = experiment: Induction of osteoblastogenesis in mouse C3H 10T1/2 cells assessed as upregulation of SP7 gene expression at 1 uM incubated for 7 days by RT-qPCR analysis; assay type: functional, cell-based; details: time 7.0 day
C3H 10T1/2 [11] = experiment: Induction of osteoblastogenesis in mouse C3H 10T1/2 cells assessed as upregulation of SPARC gene expression at 1 uM incubated for 7 days by RT-qPCR analysis; assay type: functional, cell-based; details: time 7.0 day
C3H 10T1/2 [12] = experiment: Induction of osteoclastogenesis in mouse C3H 10T1/2 cells assessed as upregulation of RANKL gene expression at 1 uM incubated for 7 days by RT-qPCR analysis; assay type: functional, cell-based; details: time 7.0 day
[13] = Toxicity in OVX-induced osteoporosis C57BL/6 mouse model assessed as change in water intake at 30 mg/kg,po administrated for 1 week; assay type: organism-based; details: in vivo, 168 h, time 1 weeks
[14] = Toxicity in OVX-induced osteoporosis C57BL/6 mouse model assessed as change in body weight at 30 mg/kg,po administrated for 1 week; assay type: organism-based; details: in vivo, 168 h, time 1 weeks
[15] = Toxicity in OVX-induced osteoporosis C57BL/6 mouse model assessed as change in hair color at 30 mg/kg,po administrated for 1 week; assay type: organism-based; details: in vivo, 168 h, time 1 weeks
[16] = Toxicity in OVX-induced osteoporosis C57BL/6 mouse model assessed as change in mental state at 30 mg/kg,po administrated for 1 week; assay type: organism-based; details: in vivo, 168 h, time 1 weeks
[17] = Toxicity in OVX-induced osteoporosis C57BL/6 mouse model assessed as change in stool state at 30 mg/kg,po administrated for 1 week; assay type: organism-based; details: in vivo, 168 h, time 1 weeks
[18] = Toxicity in OVX-induced osteoporosis C57BL/6 mouse model assessed as change in urine color at 30 mg/kg,po administrated for 1 week; assay type: organism-based; details: in vivo, 168 h, time 1 weeks
Mus musculus [19] = experiment: Anti-osteoporosis activity in OVX-induced osteoporosis C57BL/6 mouse model assessed as prevention of bone loss in femur at 10 mg/kg,po administrated for 4 weeks by Micro-CT analysis; assay type: functional, organism-based
Mus musculus [20] = experiment: Anti-osteoporosis activity in OVX-induced osteoporosis C57BL/6 mouse model assessed as increase in BV/TV in femur at 10 mg/kg,po administrated for 4 weeks by Micro-CT analysis; assay type: functional, organism-based
Mus musculus [21] = experiment: Anti-osteoporosis activity in OVX-induced osteoporosis C57BL/6 mouse model assessed as increase in […] in femur at 10 mg/kg,po administrated for 4 weeks by Micro-CT analysis; assay type: functional, organism-based
Mus musculus [22] = experiment: Anti-osteoporosis activity in OVX-induced osteoporosis C57BL/6 mouse model assessed as increase in trabecular number in femur at 10 mg/kg,po administrated for 4 weeks by Micro-CT analysis; assay type: functional, organism-based
Mus musculus [23] = experiment: Anti-osteoporosis activity in OVX-induced osteoporosis C57BL/6 mouse model assessed as increase in trabecular thickness in femur at 10 mg/kg,po administrated for 4 weeks by Micro-CT analysis; assay type: functional, organism-based
Mus musculus [24] = experiment: Anti-osteoporosis activity in OVX-induced osteoporosis C57BL/6 mouse model assessed as decrease in serum CTX-I level at 10 mg/kg,po administrated for 4 weeks; assay type: functional, organism-based
Mus musculus [25] = experiment: Anti-osteoporosis activity in OVX-induced osteoporosis C57BL/6 mouse model assessed as increase in serum osteocalcin level at 10 mg/kg,po administrated for 4 weeks; assay type: functional, organism-based
Mus musculus [26] = experiment: Anti-osteoporosis activity in OVX-induced osteoporosis C57BL/6 mouse model assessed as increase in serum PINP level at 10 mg/kg,po administrated for 4 weeks; assay type: functional, organism-based
[27] = Toxicity in OVX-induced osteoporosis C57BL/6 mouse model assessed as change in serum ALT level at 10 mg/kg,po administrated for 4 week; assay type: organism-based; details: in vivo, 672 h, time 4 weeks
[28] = Toxicity in OVX-induced osteoporosis C57BL/6 mouse model assessed as change in serum AST level at 10 mg/kg,po administrated for 4 week; assay type: organism-based; details: in vivo, 672 h, time 4 weeks
[29] = Toxicity in OVX-induced osteoporosis C57BL/6 mouse model assessed as change in serum creatinine level at 10 mg/kg,po administrated for 4 week; assay type: organism-based; details: in vivo, 672 h, time 4 weeks
[30] = Toxicity in OVX-induced osteoporosis C57BL/6 mouse model assessed as change in serum urea nitrogen level at 10 mg/kg,po administrated for 4 week; assay type: organism-based; details: in vivo, 672 h, time 4 weeks
[31] = Toxicity in OVX-induced osteoporosis C57BL/6 mouse model assessed as change in serum total cholesterol level at 10 mg/kg,po administrated for 4 week; assay type: organism-based; details: in vivo, 672 h, time 4 weeks
[32] = Toxicity in OVX-induced osteoporosis C57BL/6 mouse model assessed as change in serum triglyceride level at 10 mg/kg,po administrated for 4 week; assay type: organism-based; details: in vivo, 672 h, time 4 weeks
BMDM [33] = experiment: Anti-osteoclastogenic activity in M-CSF/RANKL-induced C57BL/6 mouse BMDM cells assessed as fold change in inhibition of M-CSF/RANKL-stimulated osteoclast differentiation at 10 uM measured after 5 days by TRAP staining based microscopic analysis relative to control; assay type: functional; details: time 5 day

O=C(O)c1cc2ccccc2cc1C(=O)Nc1nc2ccccc2s1
pIC50 (BMDM [1]): 6.40
CC50 at 48 h [2]: 65.5 µM
Activity (BMDM [3]): Active
Activity (BMDM [4]): Active
Activity (BMDM [5]): Active
Activity (BMDM [6]): Active
Activity (C3H 10T1/2 [7]): Active
Activity (C3H 10T1/2 [8]): Active
Activity (C3H 10T1/2 [9]): Active
Activity (C3H 10T1/2 [10]): Active
Activity (C3H 10T1/2 [11]): Active
Activity (C3H 10T1/2 [12]): inactive
Activity [13]: Non-Toxic
Activity [14]: Non-Toxic
Activity [15]: Non-Toxic
Activity [16]: Non-Toxic
Activity [17]: Non-Toxic
Activity [18]: Non-Toxic
Activity (Mus musculus [19]): Active
Activity (Mus musculus [20]): Active
Activity (Mus musculus [21]): Active
Activity (Mus musculus [22]): Active
Activity (Mus musculus [23]): Active
Activity (Mus musculus [24]): Active
Activity (Mus musculus [25]): Active
Activity (Mus musculus [26]): Active
Activity [27]: Non-Toxic
Activity [28]: Non-Toxic
Activity [29]: Non-Toxic
Activity [30]: Non-Toxic
Activity [31]: Non-Toxic
Activity [32]: Non-Toxic
fold change (FC) (BMDM [33]): 21.25
